Assay results taken from US20150056702A1, “METHOD AND KIT FOR CULTURING STEM CELLS” (China Medical University, priority 2013, published 2015).

What was measured:
Assay type in all cases: cell-based, mouse
[1] = tested on: ES cells; assay: Alkaline phosphatase staining of ES cells
Experimental: The following steps were conducted in order to culture ES cells: • (1) preparing a stem cell medium: DMEM+15% heat-inactivated FBS+NEAA (0.1 mM)+L-glutamine (2 mM)+β-mercaptoethanol (0.2 mM); • (2) preparing a BP-containing solution: dissolving BP into DMSO to form a BP-containing solution (100 mg/ml), and storing the solution at −20° C.; • (3) adding different amounts of the BP-containing solution in step (2) into the stem cell medium in step (1) to form different BP-containing mediums, wherein the amount of BP were about 5, 10, 20 or 40 μg per milliliter of the stem cell medium respectively (i.e. the experimental group mediums: BP5, BP10, BP20 and BP40); and • (4) using the BP-containing medium of in step (3) to culture a ES cell (retrieved from the embryos in the blastula stage of 129sv/J mice) at 37° C., 5% CO2 and 95% humidity on the feeder cells provided by Example 1.
The following procedure was conducted in proper order to culture the ES cells: • (1) preparing a stem cell medium: • LIF-containing medium (without BP): DMEM+15% heat-inactivated FBS+NEAA (0.1 mM)+L-glutamine (2 mM)+(3-mercaptoethanol (0.2 mM)+LIF (4 ng/ml); and • control medium (without BP): DMEM+15% heat-inactivated FBS+NEAA (0.1 mM)+L-glutamine (2 mM)+β-mercaptoethanol (0.2 mM); • (2) using the medium in step (1) to culture a ES cell (retrieved from embryos in the blastula stage of 129sv/J mice) at 37° C., 5% CO2 and 95% humidity on the feeder cells provided by Example 1.
(§1) Alkaline phosphatase is a marker protein of stem cells. The activity measured by staining could be used to determine if BP can effectively maintain the self-renewal and/or pluripotency of stem cells.
(§2) An experimental group medium (BP5, BP10, BP20 or BP40), a LIF-containing medium (without BP) and a control group medium (without BP) were used respectively to culture ES cells in a 6-well culture dish with an initial density of 1×10^4 per well for 72 hours. The medium was removed and the cells were washed two times with PBS. Next, PBS was removed, and 1 ml of 80% ethanol was added into each well to perform the fixation at 4° C. for 2 to 24 hours. Next, ethanol was removed, and then the cells were washed one time with distilled water. The distilled water was added again to soak the cells for 2 to 3 minutes, and then be removed. Next, the cells were soaked with a Tris-HCl buffer (100 mM, pH 8.2 to 8.5) at room temperature for 5 minutes, and then, the buffer was removed. Next, a Leukocyte Alkaline Phosphatase kit (Vector) was used to perform the staining for 20 to 30 minutes, and then the Alkaline Phosphatase Substrate working solution was removed, the cells were soaked and washed by Tris-HCl buffer (100 mM, pH 8.2 to 8.5) and then be observed by a fluorescent microscope to count the number of the AP-positive clones. The undifferentiated ES cells with a higher activity show a red color, while the differentiated ES cells with a lower activity show a weak red color or are even colorless.

[2] = tested on: iPS cells; assay: Alkaline phosphatase staining of iPS cells; conditions: 72 hours, control group = 100%
Experimental: The protocol shown in experiment A was repeated, while an iPS cell (received from Riken Research Center, Japan) was cultured at step (4).
The protocol shown in experiment C was repeated, while an iPS cell (received from Riken Research Center, Japan) was cultured at step (2).
as §1, §2
By using the above culture conditions, an experimental group medium (BP5, BP10, BP20 or BP40), a LIF-containing medium (without BP), and a control group medium (without BP) were used respectively to culture iPS cells. Then, the staining of iPS cells was performed by the steps described above. The undifferentiated iPS cells with a higher activity show a red color and the differentiated iPS cells with a lower activity show a weak red color or are even colorless.

[3] = tested on: Stat3; assay: Western blot assay, Stat3 protein in ES cells; conditions: for Stat3 Protein expression level: ES cells, control group = 100%
Description: According to the known research at present, Jak2 and Stat3 proteins could be phosphorylated to form the active forms, and the Jak2-Stat3 signaling pathway will be activated when Jak2 and Stat3 were phosphorylated.
An experimental group medium (BP5 or BP10), a LIF-containing medium (without BP), and a control group medium (without BP) were used respectively to culture ES cells with an initial density of 1×10^4 per well in a 6-well culture dish. The medium was removed until the cells growth to be about 70 to 80% confluence. The proteins were extracted to conduct the Western blot assay by using rabbit anti-Jak2 antibody (Cell Signaling Technology), mouse anti-phospho-Jak2 antibody (Cell Signaling Technology), rabbit anti-Stat3 antibody (BD) and rabbit anti-phospho-Stat3 antibody (Cell Signaling Technology), to determine whether BP would affect the protein expression levels of the genes in the Jak-Stat3 signaling pathway.

[4] = BP10 medium (about 10 μg BP/ml)
[5] = LIF-containing medium (LIF 4 ng/ml, without BP)

Compound	AP-positive clones ([1]; BP5 medium (about 5 μg BP/ml), ES cells, 72 hours, control group = 100%)	AP-positive clones ([1]; BP10 medium (about 10 μg BP/ml), ES cells, 72 hours, control group = 100%)	AP-positive clones ([1]; BP20 medium (about 20 μg BP/ml), ES cells, 72 hours, control group = 100%)	AP-positive clones ([1]; BP40 medium (about 40 μg BP/ml), ES cells, 72 hours, control group = 100%)	AP-positive clones ([1]; BP-containing ES cell medium vs control group (without BP), result in words)	AP-positive clones ([2]; BP5 medium (about 5 μg BP/ml))	AP-positive clones [2, 4]	AP-positive clones ([2]; BP20 medium (about 20 μg BP/ml))	AP-positive clones ([2]; BP40 medium (about 40 μg BP/ml))	Stat3 Protein expression level ([3]; BP5 medium (about 5 μg BP/ml))	Stat3 Protein expression level [3, 4]	total protein expression and phosphorylated protein expression level of Stat3 ([3]; ES cell medium containing BP, result in words)	AP-positive clones ([1]; LIF-containing medium (LIF 4 ng/ml, without BP), ES cells, 72 hours, control group = 100%)	AP-positive clones [2, 5]	Stat3 Protein expression level [3, 5]
CCCC=C1OC(=O)c2ccccc21 [BP, n-butylidenephthalide]	91%	116%	116%	117%	more AP-positive clones	85%	128%	192%	129%	139%	165%	increased significantly	–	–	–
LIF: multifunctional cell factor used to maintain pluripotency of stem cells; LIF-containing medium (4 ng/ml, without BP) as comparison	–	–	–	–	–	–	–	–	–	–	–	–	110%	226%	140%
